Source: ChEMBL document CHEMBL1135039, “A novel synthesis of 2-arylpyrrolo[1,2-a]pyrimid-7-ones and their structure-activity relationships as potent GnRH receptor antagonists” (Bioorg Med Chem Lett, 2002)

molecular target: T1, Gonadotropin-releasing hormone receptor (Homo sapiens, UniProt P30968); assay: Binding affinity to human gonadotropin-releasing hormone (hGnRH) receptor expressed in HEK293 cells using des-Gly10[125I-Tyr,5DLeu,6NMeLeu,7Pro9-NEt]GnRH radioligand; type: cell-based
T1 sequence (P30968 whole entry): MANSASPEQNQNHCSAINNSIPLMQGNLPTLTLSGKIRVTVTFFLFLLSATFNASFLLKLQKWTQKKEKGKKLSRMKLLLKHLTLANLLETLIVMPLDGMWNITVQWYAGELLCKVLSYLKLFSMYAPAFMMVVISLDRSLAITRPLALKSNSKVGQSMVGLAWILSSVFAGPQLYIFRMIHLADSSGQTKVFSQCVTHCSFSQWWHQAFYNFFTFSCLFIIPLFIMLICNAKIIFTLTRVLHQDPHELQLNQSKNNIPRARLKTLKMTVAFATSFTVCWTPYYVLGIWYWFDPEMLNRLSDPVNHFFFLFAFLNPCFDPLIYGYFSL

Going from `CCOC(=O)c1cn(Cc2ccccc2F)c2cc(-c3ccc(OC)cc3)c(CN(C)Cc3ccccc3)n2c1=O` to `CCOC(=O)c1cn(Cc2ccccc2F)c2cc(-c3ccc(N)cc3)c(CN(C)Cc3ccccc3)n2c1=O`, the Ki falls from 400 nM to 190 nM (2.1-fold). The second binds more tightly here.

Going from `CCCC(=O)Nc1ccc(-c2cc3n(Cc4ccccc4F)cc(C(=O)NC(CC)CC)c(=O)n3c2CN(C)CCc2ccccn2)cc1` to `CCCC(=O)Nc1ccc(-c2cc3n(Cc4ccccc4F)cc(C(=O)OC(CC)CC)c(=O)n3c2CN(C)CCc2ccccn2)cc1`, the Ki falls from 21 nM to 2.7 nM (7.8-fold). The second binds more tightly here.

First: CCCC(=O)Nc1ccc(-c2cc3n(Cc4ccccc4F)cc(C(=O)OCC)c(=O)n3c2CN(C)CCc2ccccn2)cc1
Second: CCOC(=O)c1cn(Cc2ccccc2F)c2cc(-c3ccc(NC(=O)C(C)C)cc3)c(CN(C)CCc3ccccn3)n2c1=O
The Ki of the first is 12-fold lower: 1.2 nM for the first, 14 nM for the second.

Going from `CCOC(=O)c1cn(Cc2ccccc2F)c2cc(-c3ccc([N+](=O)[O-])cc3)c(CN(C)Cc3ccccc3)n2c1=O` to `CCOC(=O)c1cn(Cc2ccccc2F)c2cc(-c3ccc(NC(C)=O)cc3)c(CN(C)Cc3ccccc3)n2c1=O`, the Ki falls from 450 nM to 42 nM (11-fold).

`CCC(CC)OC(=O)c1cn(Cc2ccccc2F)c2cc(-c3ccc(NC(C)=O)cc3)c(CN(C)Cc3ccccc3)n2c1=O` and `CCCC(=O)Nc1ccc(-c2cc3n(Cc4ccccc4F)cc(C(=O)OC(CC)CC)c(=O)n3c2CN(C)Cc2ccccc2)cc1` are within 1.5-fold of each other in Ki: 4 nM for the first, 3.8 nM for the second.

Going from `CCC(CC)OC(=O)c1cn(Cc2ccccc2F)c2cc(-c3ccc(N)cc3)c(CN(C)Cc3ccccc3)n2c1=O` to `CCC(CC)OC(=O)c1cn(Cc2ccccc2F)c2cc(-c3ccc(OC)cc3)c(CN(C)Cc3ccccc3)n2c1=O`, the Ki falls from 100 nM to 62 nM (1.6-fold). The second binds more tightly here.

Going from `CCCC(=O)Nc1ccc(-c2cc3n(Cc4ccccc4F)cc(C(=O)NCCCc4ccccc4)c(=O)n3c2CN(C)CCc2ccccn2)cc1` to `CCCC(=O)Nc1ccc(-c2cc3n(Cc4ccccc4F)cc(C(=O)NCCCc4ccccc4)c(=O)n3c2CN(C)Cc2ccccc2)cc1`, the Ki rises from 1.1 nM to 17 nM (15-fold). The first binds more tightly here.

Going from `CCCC(=O)Nc1ccc(-c2cc3n(Cc4ccccc4F)cc(C(=O)NC4CCCCC4)c(=O)n3c2CN(C)CCc2ccccn2)cc1` to `CCCC(=O)Nc1ccc(-c2cc3n(Cc4ccccc4F)cc(C(=O)NC4CCCC4)c(=O)n3c2CN(C)CCc2ccccn2)cc1`, the Ki falls from 32 nM to 9.2 nM (3.5-fold).

Going from `CCCCNC(=O)c1cn(Cc2ccccc2F)c2cc(-c3ccc(NC(=O)CCC)cc3)c(CN(C)CCc3ccccn3)n2c1=O` to `CCCCCCNC(=O)c1cn(Cc2ccccc2F)c2cc(-c3ccc(NC(=O)CCC)cc3)c(CN(C)CCc3ccccn3)n2c1=O`, the Ki falls from 10 nM to 3.3 nM (3-fold).

Going from `CCCC(=O)Nc1ccc(-c2cc3n(Cc4ccccc4F)cc(C(=O)OC(CC)CC)c(=O)n3c2CN(C)C)cc1` to `CCCC(=O)Nc1ccc(-c2cc3n(Cc4ccccc4F)cc(C(=O)OC(CC)CC)c(=O)n3c2CN(C)CCN(CC)CC)cc1`, the Ki falls from 130 nM to 5.8 nM (22-fold).

Going from `CN(CCc1ccccn1)Cc1c(-c2ccc([N+](=O)[O-])cc2)cc2n(Cc3ccccc3F)cc(-c3nc(C(C)(C)C)co3)c(=O)n12` to `CN(CCc1ccccn1)Cc1c(-c2ccc([N+](=O)[O-])cc2)cc2n(Cc3ccccc3F)cc(C3=NC(C)(C)CO3)c(=O)n12`, the Ki rises from 64 nM to 270 nM (4.2-fold).

Compared with `CCCCNC(=O)c1cn(Cc2ccccc2F)c2cc(-c3ccc(NC(=O)CCC)cc3)c(CN(C)CCN(CC)CC)n2c1=O`, `CCCCNC(=O)c1cn(Cc2ccccc2F)c2cc(-c3ccc(NC(=O)CCC)cc3)c(CN(C)Cc3ccccc3)n2c1=O` is 2.9-fold lower in Ki: 440 nM for the first, 154 nM for the second. The second binds more tightly here.

First: CCC(CC)OC(=O)c1cn(Cc2ccccc2F)c2cc(-c3ccc(NC(C)=O)cc3)c(CN(C)CCc3ccccn3)n2c1=O
Second: CCC(CC)OC(=O)c1cn(Cc2ccccc2F)c2cc(-c3ccc(OC)cc3)c(CN(C)CCc3ccccn3)n2c1=O
The Ki of the first is 5-fold lower: 2.8 nM for the first, 14 nM for the second. The first binds more tightly here.

Going from `CCOC(=O)c1cn(Cc2ccccc2F)c2cc(-c3ccc(OC)cc3)c(CN(C)CCc3ccccn3)n2c1=O` to `CCCC(=O)Nc1ccc(-c2cc3n(Cc4ccccc4F)cc(C(=O)NCCOC)c(=O)n3c2CN(C)CCc2ccccn2)cc1`, the Ki rises from 55 nM to 630 nM (11-fold).

Compared with `CCOC(=O)c1cn(Cc2ccccc2F)c2cc(-c3ccc(NC(=O)C(C)C)cc3)c(CN(C)Cc3ccccc3)n2c1=O`, `CCCC(=O)Nc1ccc(-c2cc3n(Cc4ccccc4F)cc(C(=O)OC(CC)CC)c(=O)n3c2CN(C)CCc2ccccc2)cc1` is 21-fold lower in Ki: 44 nM for the first, 2.1 nM for the second.
